A short description of assay [1]: Inhibition of catalytic subunit of PKA.
Assay [2] in a line: Inhibition of PKC.
Assay [3] in a line: Binding affinity to PKAc.
Assay [4] can be described thus: Binding affinity to PKG.

A word on the IC50: it is the concentration needed to halve the response being measured. A lower IC50 goes with greater potency. As to `N=C(N)NCCC[C@H](NC(=O)[C@H](CCCNC(=N)N)NC(=O)[C@H](CCCNC(=N)N)NC(=O)[C@H](CCCNC(=N)N)NC(=O)[C@H](CCCNC(=N)N)NC(=O)[C@H](CCCNC(=N)N)NC(=O)[C@H](CO)NC(=O)CCNCCNS(=O)(=O)c1cccc2cnccc12)C(N)=O`, the IC50 in assay [1] is 3 nM; in assay [2], 300 nM.

As usually defined, the Ki is a dissociation constant, usually derived from enzyme kinetics or from competition with a known ligand. Low readings indicate tighter binding, high ones weaker binding. As to `NCCNS(=O)(=O)c1cccc2cnccc12`, the Ki worked out at 1900 nM in assay [3] and 800 nM in assay [4].

The record behind these values is ChEMBL document CHEMBL2021921 (Bioorg Med Chem Lett, 2012).
